Patent publication US9392792B1, “Topical combination of fipronil, permethrin and pyriproxyfen” (priority 2014, dated 2016)

Test: Crystallization test on glass slides at ambient temperature
Assay type: physicochemical
Settings: comparison of compositions R1 and C2
Protocol: Number of glass slides per composition: 5 Protocol: • place the glass slides on a dark-coloured support; • deposit approximately 300 μl of the test composition on each glass slide, while spreading it on the central part of the glass slide (so as to avoid overspill); • leave the glass slide for 24 h in an environment at ambient temperature (approximately 20° C.). The following observations will be carried out: • the visual appearance (to the naked eye) of the compositions is observed after deposition thereof on a glass slide and reported in the observation table; • the visual appearance (to the naked eye) of the compositions is observed after 24 h at ambient temperature and is reported in the observation table while pointing out the possible presence and, where appropriate, the number of crystals present on the whole of the plate; • next, the plates are observed under polarized light and any crystals present are counted on the whole of the plate; an estimation of the size of the crystals is also carried out; • finally, the presence and the count of the crystals possibly present on each of the plates is reported in the observation table. […]

For `CC(COc1ccc(Oc2ccccc2)cc1)Oc1ccccn1` (stereo not shown) [pyriproxyfen, Pyriproxyfen], the “effect of pyriproxyfen on crystallization of fipronil in the presence of permethrin at high concentration” value was “substantially reduces the crystallization”.
